Consider 15 compounds from patent US10828301B2, “2,4-pyrimidinediamine compounds and their uses” (Rigel Pharmaceuticals, Inc, priority 2002, dated 2020).

A short description of data set [1]: Oral bioavailability / pharmacokinetics in rats. The class given is in vivo. The following applies: rats. On the procedure:
Over 50 2,4-pyrimidinediamine compounds of the invention were tested for oral bioavailability. For the study, compounds were dissolved in various vehicles (e.g. PEG 400 solution and CMC suspension) for intravenous and oral dosing in the rats. Following administration of the drug, plasma samples were obtained and extracted. The plasma concentrations of the compounds were determined by high performance liquid chromatography/tandem mass spectrometry (LC/MS/MS) methods. Pharmacokinetic analyses were performed based on the plasma concentration data. The pharmacokinetic parameters of interest include Clearance (CL), Volume of distribution at steady-state (Vss), terminal half-life (t1/2), and oral bioavailability (% F).

In data set [2] the target is FcγRI receptor-mediated degranulation. Put plainly: FcγRI-mediated degranulation (activation with anti-human IgG Fab fragment). The following applies: cells not primed with IgE, activated with rabbit anti-human IgG Fab fragment.
The nature of data set [3]: Mouse model of allergic asthma (ovalbumin). Format: in vivo. From the text:
Mice are sensitized to ovalbumin (chicken protein) in the presence of an adjuvant (Alum) by the intraperitoneal route on day 0 and day 7. One week later, mice are challenged intranasally with ovalbumin on Days 14, 15 and 16 (more stringent model) or on Day 14 (less stringent model). This sensitization and challenge regimen leads to airway hyperresponsiveness and inflammation in the lungs, which are two dominant characteristics of human allergic asthma. In the mouse model, the in vivo airway responses are measured using a whole body plethysmograph which determines the PENH (enhanced Pause, Buxco Electronics). The PENH is a dimensionless value comprised of the peak inspiratory flow (PIF), peak expiratory flow (PEF), time of inspiration, time of expiration and relaxation time, and is considered a validated parameter of airway responsiveness. Responses to allergen challenge (OVA) are compared with animals challenged with saline only. Twenty-four hours after challenge, mice are exposed to increasing doses of methacholine (muscarinic receptor agonist) which results in smooth muscle contraction. […] In addition, a cellular infiltrate in the airway is observed in ovalbumin challenged mice when compared with the saline challenged mice. This cellular infiltrate is mainly characterized by eosinophils, but a smaller influx of neutrophils and mononuclear cells is also present.
The use of this model for the evaluation of small molecule inhibitors of mast cell degranulation has been validated is several ways. First, using mast cell deficient mice (W/W^v) it has been shown that the ovalbumin-induced responses are dependent upon the presence of mast cells.

The test system of data set [4] is cultured human mast cells (CHMC). The data set can be described thus: CHMC low cell density IgE activation: tryptase and LTC4 assays. Format: cell-based. Conditions: Homo sapiens, Mast cell, Low Density CHMC, anti-IgE activation. The procedure, abridged: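 Cultured human mast cells at low density (1000-1500 per well) rested 1 h at 37° C, then stimulated with anti-IgE for 30 min at 37° C. Supernatant tryptase measured with fluorogenic substrate (30 min, room temperature); LTC4 quantified by ELISA on diluted supernatant.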

The subject of data set [5] is Jurkat cells. Put plainly: Jurkat toxicity: Cell Titer Glo assay. Conditions: Homo sapiens, 18 hours. Format: cell-based. The protocol:
Seed 50 μl cells (1×10^6/ml) into each well containing 50 μl compound. […] Shake plates for 1 minute to mix cells and compound. Incubate plates at 37° C. […] Next day, harvest 50 μl cells from each well, add to 50 μl Cell Titer Glo reagent ([…]). Shake plates for 1 minute. Read on luminometer.

Data set [6] has as its system cultured human mast cells (CHMC). The data set can be described thus: CHMC low cell density ionomycin activation: tryptase assay. The class given is cell-based. Conditions: Homo sapiens, Mast cell, Low Density CHMC, ionomycin activation, tryptase readout; read-out: CHMC Ionomycin Tryptase.
Data set [7] concerns bone marrow derived mast cells (BMMC). The data set can be described thus: BMMC high cell density IgE activation: degranulation (hexosiminidase, histamine), leukotriene (LTC4) and cytokine (TNFalpha, IL-6) assays. The class given is cell-based. The following applies: Mus musculus, anti-IgE activation.
The test system of data set [8] is cultured human mast cells (CHMC). Put plainly: CHMC high cell density IgE activation: degranulation (hexos, tryptase, histamine), leukotriene (LTC4) and cytokine (TNFalpha, IL-13) assays. Format: cell-based. Conditions: anti-IgE activation. The protocol: After sensitizing, cells are counted, pelleted (1000 rpm, 5-10 minutes), and resuspended at 1-2×10^6 cells/ml in MT buffer. Add 100 ul of cell suspension to each well and 100 ul of compound dilutions. The final vehicle concentration is 0.5% DMSO. Incubate at 37° C. (5% CO2) for 1 hour. After 1 hour of compound treatment, stimulate cells with 6× anti-IgE. Mix wells with the cells and allow plates to incubate at 37° C. (5% CO2) for one hour. After 1 hour incubation, pellet cells (10 minutes, 1000 RPM) and collect 200 ul per well of the supernatant, being careful not to disturb pellet. Place the supernatant plate on ice. During the 7-hour step (see next) perform tryptase assay on supernatant that had been diluted 1:500. Resuspend cell pellet in 240 ul of CM media containing 0.5% DMSO and corresponding concentration of compound. Incubate CHMC cells for 7 hours at 37° C. (5% CO2). After incubation, pellet cells (1000 RPM, 10 minutes) and collect 225 ul per well and place in −80° C. until ready to perform ELISAS. ELISAS are performed on appropriately diluted samples (determined empirically for each donor cell population so that the sample measurement falls within the standard curve) following the supplier's instructions.

The mark [9] stands for this setting: tryptase readout, read-out: CHMC anti-IgE Tryptase.
[10] abbreviates: IL-6 release, read-out: BMMC anti-IgE IL-6 IC50.
[11] abbreviates: LTC4 release, read-out: BMMC anti-IgE LTC4 IC50.
Setting [12] is: TNF-alpha release, read-out: BMMC anti-IgE TNF-alpha IC50.
[13] abbreviates: hexosaminidase release, read-out: BMMC anti-IgE hexos IC50.
The mark [14] stands for this setting: histamine release, read-out: BMMC anti-IgE histamine IC50.
Where [15] appears, read: LTC4, read-out: CHMC high density LTC4.
Where [16] appears, read: TNF-alpha, read-out: CHMC high density TNF-alpha.
Setting [17] is: hexosaminidase release, read-out: CHMC high density hexos.
Where [18] appears, read: histamine release, read-out: CHMC high density histamine.
The mark [19] stands for this setting: tryptase release, read-out: CHMC high density tryptase.

Molecules are shown by their SMILES. Like-named read-outs stand apart in the source and are kept apart here. A value given as a limit tells only on which side of the number the result lay.

Take `Fc1cnc(Nc2ccc3cn[nH]c3c2)nc1Nc1ccc(Cl)c(Cl)c1` [Compound R935372, N4-(3,4-Dichlorophenyl)-5-fluoro-N2-(indazoline-6-yl)-2,4-pyrimidinediamine]: in data set [1], the “oral bioavailabilities and half-lives (in words)” value was “good oral bioavailabilities and half-lives in rats”. In addition, in data set [2], the “inhibition of FcγRI-mediated degranulation” value (“inhibition” for short) is on record as “inhibit FcγRI-mediated degranulation”.
As to `CNC(=O)COc1cccc(Nc2ncc(F)c(Nc3ccc4c(n3)NC(=O)CO4)n2)c1` [Compound R921304, 5-Fluoro-N2-(3-methylaminocarbonylmethyleneoxyphenyl)-N4-[2H-pyrido[3,2-b]-1,4-oxazin-3(4H)-one-6-yl]-2,4-pyrimidinediamine], the “ovalbumin-induced airway hyperresponsiveness to methacholine” value in data set [3] (intranasal, 10 consecutive days (Day 7 through Day 16), 20 mg/kg) is “able to inhibit the ovalbumin-induced airway hyperresponsiveness to methacholine”. Further, the “airway responses in a mouse model of allergic asthma” value in data set [3] (summary) is “efficacious in inhibiting the airway responses”.
On to `O=C(O)c1cc(=O)c2c(OCC(O)COc3cccc4oc(C(=O)O)cc(=O)c34)cccc2o1` [Cromolyn, reference compound], for which the “ovalbumin-induced airway hyperresponsiveness and inflammation” value in data set [3] (model validation, data not shown) was “able to block the ovalbumin-induced airway hyperresponsiveness and inflammation”.
For the compound `CCCC1O[C@@H]2C[C@H]3[C@@H]4CCC5=CC(=O)C=C[C@]5(C)[C@H]4[C@@H](O)C[C@]3(C)[C@]2(C(=O)CO)O1` (stereo partly drawn) [budesonide, reference compound], the methacoline-induced bronchocontriction result in data set [3] (model validation) was “inhibitory effect”.
As for `CC(C)Oc1ccc(Nc2nc(Nc3cccc(OCCO)c3)ncc2F)cc1` [Compound R935156, 5-Fluoro-N2-[3-(2-hydroxyethoxy)phenyl]-N4-(4-isopropoxyphenyl)-2,4-pyrimidinediamine], the IC50 was 149 nM in data set [4] (setting [9]); 4050 nM in data set [5]; greater than 10000 nM in data set [6]; less than 220 nM in data set [7] (setting [10]); 433 nM in data set [7] (setting [11]); 220 nM in data set [7] (setting [12]). The IC50 in data set [7] (setting [13]) and in data set [7] (setting [14]) was less than 220 nM in each case.
For the compound `Nc1cccc(Nc2ncc(F)c(Nc3ccc4c(c3)OCCO4)n2)c1` [Compound R950207, N2-(3-Aminophenyl)-N4-(3,4-ethylenedioxyphenyl)-5-fluoro-2,4-pyrimidinediamine], the IC50 is 164 nM in data set [4] (setting [9]); greater than 4330 nM in data set [5]; greater than 10000 nM in data set [6]; less than 220 nM in data set [7] (setting [10]); 288 nM in data set [7] (setting [11]); less than 220 nM in data set [7] (setting [12]). Also, the IC50 in data set [7] (setting [13]) and in data set [7] (setting [14]) was less than 220 nM throughout.
Turning to `Cn1ncc2cc(Nc3ncc(F)c(Nc4ccc5c(c4)OCCO5)n3)ccc21` [Compound R935193, N4-(3,4-Ethylenedioxyphenyl)-5-fluoro-N2-(1-methyl-indazoline-5-yl)-2,4-pyrimidinediamine], the “oral bioavailabilities and half-lives (in words)” value in data set [1] was “good oral bioavailabilities and half-lives in rats”.
On to `NC12OCCON1C(Nc1ccc3oc(CO)cc3c1)=NC=C2F` (stereo not drawn) [Compound R926696, N4-(3,4-Ethylenedioxy)-5-fluoro-N2-[2-(hydroxymethyl)benzofuran-5-yl]-2,4-pyrimidinediamine], for which the IC50 in data set [8] (IL-13, read-out: CHMC high density IL-13) was 1770 nM; in data set [8] (setting [15]) it was less than 1100 nM; in data set [8] (setting [16]) it was less than 1100 nM; in data set [8] (setting [17]), less than 1100 nM; in data set [8] (setting [18]), less than 1100 nM; in data set [8] (setting [19]) it was less than 1100 nM. The figures for the IC50 in data set [4] (setting [9]), in data set [5] and in data set [6] were 309 nM, greater than 5000 nM and greater than 10000 nM, respectively.
Turning to `OCCOc1cccc(Nc2ncc(F)c(Nc3ccc4c(c3)OCCO4)n2)c1` [Compound R935154, N4-(3,4-Ethylenedioxyphenyl)-5-fluoro-N2-[3-(2-hydroxyethoxy)phenyl]-2,4-pyrimidinediamine], the IC50 in data set [4] (setting [9]) is 127 nM; in data set [5] it was greater than 4330 nM; in data set [6] it was greater than 10000 nM; in data set [7] (setting [10]), 41 nM; in data set [7] (setting [11]) it was 547 nM; in data set [7] (setting [12]) it was 131 nM. Besides, the IC50 in data set [7] (setting [13]) worked out at 104 nM; in data set [7] (setting [14]), 85 nM.
As for `C[C@@H]1C[C@H]2[C@@H]3CCC4=CC(=O)C=C[C@]4(C)[C@@]3(F)[C@@H](O)C[C@]2(C)[C@@]1(O)C(=O)CO` [dexamethasone, reference compound], the methacoline-induced bronchocontriction entry in data set [3] (model validation) is “inhibitory effect”.
As to `OCCCn1ncc2cc(Nc3ncc(F)c(Nc4ccc(Cl)c(Cl)c4)n3)ccc21` [Compound R935391], the “oral bioavailabilities and half-lives (in words)” value in data set [1] is “good oral bioavailabilities and half-lives in rats”.
With `COc1cc(Nc2ncc(F)c(Nc3ccc4c(c3)NC(=O)C(C)(C)O4)n2)cc(OC)c1` [Compound R927050], the “oral bioavailabilities and half-lives (in words)” value in data set [1] was “good oral bioavailabilities and half-lives in rats”. Further, in data set [2], the “inhibition” value is listed as “inhibit FcγRI-mediated degranulation”.
`Oc1cccc(Nc2nc(Nc3ccc4c(c3)N=CCO4)ncc2F)c1` [Compound R909241, N2-(1,4-Benzoxazin-6-yl)-5-fluoro-N4-(3-hydroxyphenyl)-2,4-pyrimidinediamine]: the IC50 in data set [4] (setting [9]) was 181 nM; in data set [5], 3740 nM; in data set [6] it was greater than 10000 nM; in data set [7] (setting [10]) it was less than 220 nM; in data set [7] (setting [11]), 1020 nM; in data set [7] (setting [12]) it was 253 nM. The IC50 in data set [7] (setting [13]) and in data set [7] (setting [14]) was less than 220 nM throughout.
On to `CNC(=O)c1cc2cc(Nc3ncc(F)c(Nc4cccc(O)c4)n3)ccc2o1` [Compound R926493, 5-Fluoro-N4-(3-hydroxyphenyl)-N2-[2-(N-methylamino)carbonylbenzofuran-5-yl]-2,4-pyrimidinediamine], for which the IC50 in data set [8] (setting [15]) was 474 nM; in data set [8] (setting [16]) it was greater than 2000 nM; in data set [8] (setting [17]), 889 nM; in data set [8] (setting [18]), 1320 nM; in data set [8] (setting [19]) it was 1090 nM; in data set [4] (LTC4 readout, read-out: CHMC anti-IgE LTC4), 78 nM. Further, the IC50 in data set [4] (setting [9]) was 250 nM; in data set [5] it was greater than 4330 nM; in data set [6] it was 9180 nM.
`CC1(C)Oc2ccc(Nc3ncc(F)c(Nc4ccc5c(c4)NC(=O)C(C)(C)O5)n3)cc2NC1=O` [Compound R940350, N2,N4-[(2,2-Dimethyl-4H-benzo[1,4]oxazin-3-one)-6-yl]-5-fluoro-2,4-pyrimidinediamine]: the “oral bioavailabilities and half-lives (in words)” value in data set [1] is “good oral bioavailabilities and half-lives in rats”. In addition, the “inhibition” value in data set [2] was “inhibit FcγRI-mediated degranulation”.
